Source: patent US9453014B2, “Cyclic amide derivatives as inhibitors of 11-β-hydroxysteroid dehydrogenase and uses thereof” (CONNEXIOS LIFE SCIENCES PVT. LTD., priority 2011, dated 2016)

Target: T1, human full length HSD11 β 1 (Homo sapiens, UniProt P28845)
T1 construct: transient expression of human full length HSD11 β 1 expression vector; host or cells: CHO cells (transient transfection)
Assay: In Vitro HSD11β1 Inhibition Assay
Format: cell-based
Details: CHO cells transiently expressing human HSD11β1; 200 nM cortisone+500 uM NADPH overnight; cortisone to cortisol by LC/MS-MS; read-out: 11βHSD1 (IC50)
Summary of the method: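 CHO cells transiently transfected with human full-length HSD11β1 were re-seeded after 24 h and, 24 h later, incubated overnight with 200 nM cortisone plus 500 uM NADPH and inhibitor. Cortisone-to-cortisol conversion was measured by LC/MS-MS. IC50 from an 8-point log concentration–inhibition curve.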

T1 sequence (P28845 whole entry): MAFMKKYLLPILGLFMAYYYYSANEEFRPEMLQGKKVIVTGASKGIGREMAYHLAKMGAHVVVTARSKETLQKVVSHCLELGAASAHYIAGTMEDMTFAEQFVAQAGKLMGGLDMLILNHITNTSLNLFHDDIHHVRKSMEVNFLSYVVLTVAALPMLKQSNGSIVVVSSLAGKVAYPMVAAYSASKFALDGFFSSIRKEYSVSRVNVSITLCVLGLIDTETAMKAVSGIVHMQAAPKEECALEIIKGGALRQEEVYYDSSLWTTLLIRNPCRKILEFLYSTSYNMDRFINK

Row | Compound | IC50
1 | CC(C)Oc1cccc2c1c(C(C)CC(=O)N1CCCC3C(C(=O)O)CCCC31)cn2C (stereo not shown) [Compound 208, 1-{3-[1-methyl-4-(propan-2-yloxy)-1H-indol-3-yl]butanoyl}decahydroquinoline-5-carboxylic acid] | 100 to 150 nM
2 | CC(CC(=O)N1CCCC2C(C(=O)O)CCCC21)c1cn(C)c2cccc(Cl)c12 (stereo not shown) [Compound 209, 1-[3-(4-chloro-1-methyl-1H-indol-3-yl)butanoyl]decahydroquinoline-5-carboxylic acid] | 150 to 200 nM
3 | CCn1cc(C(C)CC(=O)N2CCCC3C(C(=O)O)CCCC32)c2c(C3CC3)cccc21 (stereo not shown) [Compound 210, 1-[3-(4-cyclopropyl-1-ethyl-1H-indol-3-yl)butanoyl]decahydroquinoline-5-carboxylic acid] | 100 to 150 nM
4 | CC(CC(=O)N1CCCC2CC(C(=O)O)CCC21)c1c[nH]c2cccc(C3CC3)c12 (stereo not shown) [Compound 217, 1-[3-(4-cyclopropyl-1H-indol-3-yl)butanoyl]decahydroquinoline-6-carboxylic acid] | 100 to 150 nM
5 | CC(CC(=O)N1CCCC2CC(C(=O)O)CCC21)c1c[nH]c2cccc(Cl)c12 (stereo not shown) [Compound 228, 1-[3-(4-chloro-1H-indol-3-yl)butanoyl]decahydroquinoline-6-carboxylic acid] | > 250 nM
6 | CC(CC(=O)N1C(C)CCC2C(C(=O)O)CCCC21)c1c[nH]c2cccc(C3CC3)c12 (stereo not shown) [Compound 230, 1-[3-(4-cyclopropyl-1H-indol-3-yl)butanoyl]-2-methyldecahydroquinolin-5-carboxylic acid] | 150 to 200 nM
7 | CC(CC(=O)N1C(C)CCC2C(C(=O)O)CCCC21)c1c[nH]c2cccc(-c3cccs3)c12 (stereo not shown) [Compound 232, 2-methyl-1-{3-[4-(thiophen-2-yl)-1H-indol-3-yl]butanoyl}decahydroquinoline-5-carboxylic acid] | 150 to 200 nM
8 | CC(CC(=O)N1C(C)CCC2C(C(=O)O)CCCC21)c1c[nH]c2cccc(-c3cccs3)c12 (stereo not shown) [Compound 233, 2-methyl-1-{3-[4-(thiophen-2-yl)-1H-indol-3-yl]butanoyl}decahydroquinoline-5-carboxylic acid] | > 250 nM
9 | CC(CC(=O)N1C(C)CCC2C(C(=O)O)CCCC21)c1c[nH]c2cccc(Cl)c12 (stereo not shown) [Compound 234, 1-[3-(4-chloro-1H-indol-3-yl)butanoyl]-2-methyldecahydroquinoline-5-carboxylic acid] | > 250 nM
10 | CC(CC(=O)N1CCC(=O)C2CCCCC21)c1c[nH]c2cccc(Cl)c12 (stereo not shown) [Compound 235, 1-[3-(4-chloro-1H-indol-3-yl)butanoyl]octahydroquinolin-4(1H)-one] | < 100 nM
11 | CC(CC(=O)N1CCCC2C1CCCC2(C)C(=O)O)c1c[nH]c2cccc(C3CC3)c12 (stereo not shown) [Compound 237, 1-[3-(4-cyclopropyl-1H-indol-3-yl)butanoyl]-5-methyldecahydroquinoline-5-carboxylic acid] | 150 to 200 nM
12 | CC(CC(=O)N1CCCC2C(c3nnn[nH]3)CCCC21)c1c[nH]c2cccc(C3CC3)c12 (stereo not shown) [Compound 240, 3-(4-cyclopropyl-1H-indol-3-yl)-1-[5-(1H-tetrazol-5-yl)octahydroquinolin-1(2H)-yl]butan-1-one] | > 250 nM
13 | COn1cc(C(C)CC(=O)N2CCCC3C(C(=O)O)CCCC32)c2c(C3CC3)cccc21 (stereo not shown) [Compound 241, 1-[3-(4-cyclopropyl-1-methoxy-1H-indol-3-yl)butanoyl]decahydroquinoline-5-carboxylic acid] | > 250 nM
14 | COCn1cc(C(C)CC(=O)N2CCCC3C(C(=O)O)CCCC32)c2c(C3CC3)cccc21 (stereo not shown) [Compound 242, 1-{3-[4-cyclopropyl-1-(methoxymethyl)-1H-indol-3-yl]butanoyl}decahydroquinoline-5-carboxylic acid] | > 250 nM
15 | CC(CC(=O)N1CCCC2C(C(=O)NCC(=O)O)CCCC21)c1c[nH]c2cccc(C3CC3)c12 (stereo not shown) [Compound 247, N-({1-[3-(4-cyclopropyl-1H-indol-3-yl)butanoyl]decahydroquinolin-5-yl}carbonyl)glycine] | > 250 nM
16 | CC(CC(=O)N1CCCC2C(C(=O)O)CCCC21)c1c(C#N)[nH]c2cccc(C3CC3)c12 (stereo not shown) [Compound 252, 1-[3-(2-cyano-4-cyclopropyl-1H-indol-3-yl)butanoyl]decahydroquinoline-5-carboxylic acid] | > 250 nM
17 | CC(CC(=O)N1CCCC2C(C(=O)O)CCCC21)c1c(C#N)n(C)c2cccc(C3CC3)c12 (stereo not shown) [Compound 258, 1-[3-(2-cyano-4-cyclopropyl-1-methyl-1H-indol-3-yl)butanoyl]decahydroquinoline-5-carboxylic acid] | > 250 nM

The next lines start with the values.

Row | IC50 | Compound
18 | < 100 nM | CC(C)c1cccc2[nH]cc(C(C)CC(=O)N3CCCC4C(C(=O)O)CCCC43)c12 (stereo not shown) [Compound 211, 1-{3-[4-(propan-2-yl)-1H-indol-3-yl]butanoyl}decahydroquinoline-5-carboxylic acid]
19 | < 100 nM | CC(CC(=O)N1CCCC2C(C(=O)O)CCCC21)c1c[nH]c2cccc(-c3ccco3)c12 (stereo not shown) [Compound 215, 1-{3-[4-(furan-2-yl)-1H-indol-3-yl]butanoyl}decahydroquinoline-5-carboxylic acid]
20 | < 100 nM | CC(CC(=O)N1CCCC2C(C(=O)O)CCCC21)c1cn(C)c2cccc(-c3ccco3)c12 (stereo not shown) [Compound 216, 1-{3-[4-(furan-2-yl)-1-methyl-1H-indol-3-yl]butanoyl}decahydroquinoline-5-carboxylic acid]
21 | < 100 nM | CC(CC(=O)N1CCCC2C(C(=O)O)CCCC21)c1c[nH]c2ccc(F)c(C3CC3)c12 (stereo not shown) [Compound 220, 1-[3-(4-cyclopropyl-5-fluoro-1H-indol-3-yl)butanoyl]decahydroquinoline-5-carboxylic acid]
22 | < 100 nM | CC(CC(=O)N1CCCC2C(C(=O)O)CCCC21)c1c[nH]c2cccc(-c3ccco3)c12 (stereo not shown) [Compound 221, 1-{3-[4-(furan-2-yl)-1H-indol-3-yl]butanoyl}decahydroquinoline-5-carboxylic acid]
23 | 100 to 150 nM | CC(CC(=O)N1CCCC2C(C(=O)O)CCCC21)c1c[nH]c2cccc(-c3ccco3)c12 (stereo not shown) [Compound 222, 1-{3-[4-(furan-2-yl)-1H-indol-3-yl]butanoyl}decahydroquinoline-5-carboxylic acid]
24 | > 250 nM | CC(CC(=O)N1CCC(C(=O)O)C2CCCCC21)c1c[nH]c2cccc(-c3ccco3)c12 (stereo not shown) [Compound 227, 1-{3-[4-(furan-2-yl)-1H-indol-3-yl]butanoyl}decahydroquinoline-4-carboxylic acid]
25 | 100 to 150 nM | CC(CC(=O)N1CCCC2CC(C(=O)O)CCC21)c1c[nH]c2cccc(-c3ccco3)c12 (stereo not shown) [Compound 229, 1-{3-[4-(furan-2-yl)-1H-indol-3-yl]butanoyl}decahydroquinoline-6-carboxylic acid]
26 | 150 to 200 nM | CC(CC(=O)N1C(C)CCC2C(C(=O)O)CCCC21)c1c[nH]c2cccc(-c3ccco3)c12 (stereo not shown) [Compound 231, 1-{3-[4-(furan-2-yl)-1H-indol-3-yl]butanoyl}-2-methyldecahydroquinoline-5-carboxylic acid]
27 | 100 to 150 nM | Cc1ccc(-c2cccc3[nH]cc(C(C)CC(=O)N4CCCC5C(C(=O)O)CCCC54)c23)o1 (stereo not shown) [Compound 236, 1-{3-[4-(5-methylfuran-2-yl)-1H-indol-3-yl]butanoyl}decahydroquinoline-5-carboxylic acid]
28 | > 250 nM | CC(CC(=O)N1CCCC2C(C(=O)O)CCCC21)c1c[nH]c2cccc(-c3ccccn3)c12 (stereo not shown) [Compound 238, 1-{3-[4-(pyridin-2-yl)-1H-Indol-3-yl]butanoyl}decahydroquinoline-5-carboxylic acid]
29 | > 250 nM | Cc1cc(-c2cccc3[nH]cc(C(C)CC(=O)N4CCCC5C(C(=O)O)CCCC54)c23)on1 (stereo not shown) [Compound 239, 1-{3-[4-(3-methyl-1,2-oxazol-5-yl)-1H-indol-3-yl]butanoyl}decahydroquinoline-5-carboxylic acid]
30 | < 100 nM | CC(CC(=O)N1CCCC2C(C(=O)O)CCCC21)c1c[nH]c2cccc(-c3ccc(F)cc3)c12 (stereo not shown) [Compound 243, 1-{3-[4-(4-fluorophenyl)-1H-indol-3-yl]butanoyl}decahydroquinoline-5-carboxylic acid]
31 | > 250 nM | CC(CC(=O)N1CCCC2C(C(=O)O)CCCC21)c1c[nH]c2cccc(-c3cccn3C)c12 (stereo not shown) [Compound 244, 1-{3-[4-(1-methyl-1H-pyrrol-2-yl)-1H-indol-3-yl]butanoyl}decahydroquinoline-5-carboxylic acid]
32 | < 100 nM | CC(CC(=O)N1CCCC2C(C(=O)O)CCCC21)c1c[nH]c2cccc(-c3ccc(F)o3)c12 (stereo not shown) [Compound 245, 1-{3-[4-(5-fluorofuran-2-yl)-1H-indol-3-yl]butanoyl}decahydroquinoline-5-carboxylic acid]
33 | > 250 nM | CC(CC(=O)N1CCCC2CCCCC21)c1c[nH]c2cccc(-c3ccc(C(=O)O)o3)c12 (stereo not shown) [Compound 246, 5-{3-[4-(octahydroquinolin-1(2H)-yl)-4-oxobutan-2-yl]-1H-indol-4-yl}furan-2-carboxylic acid]
34 | < 100 nM | CC(CC(=O)N1CCCC2C(C(=O)O)CCCC21)c1c[nH]c2cccc(-c3ccc(F)cc3)c12 (stereo not shown) [Compound 253, 1-{3-[4-(4-fluorophenyl)-1H-indol-3-yl]butanoyl}decahydroquinoline-5-carboxylic acid]
35 | > 250 nM | CC(CC(=O)N1CCCC2C(C(=O)O)CCCC21)c1c[nH]c2cccc(-c3ccc(F)cc3)c12 (stereo not shown) [Compound 254, 1-{3-[4-(4-fluorophenyl)-1H-indol-3-yl]butanoyl}decahydroquinoline-5-carboxylic acid]
36 | 100 to 150 nM | CC(CC(=O)N1CCCC2C(C(=O)O)CCCC21)c1c[nH]c2cccc(-c3ccccc3F)c12 (stereo not shown) [Compound 257, 1-{3-[4-(2-fluorophenyl)-1H-indol-3-yl]butanoyl}decahydroquinoline-5-carboxylic acid]
37 | 150 to 200 nM | CC(CC(=O)N1CCCC2C(C(=O)O)CCCC21)c1c[nH]c2cccc(-c3cccc(F)c3)c12 (stereo not shown) [Compound 259, 1-{3-[4-(3-fluorophenyl)-1H-indol-3-yl]butanoyl}decahydroquinoline-5-carboxylic acid]
